Reference: patent US11046699B2, “Pyrazolo-pyrimidin-amino-cycloalkyl compounds and their therapeutic uses” (RAPT THERAPEUTICS, INC., priority 2018, dated 2021)
Like-named read-outs stand apart in the source and are kept apart here.

Target: GCN2 (Homo sapiens, UniProt Q9P2K8)
Assay: GCN2 enzymatic endpoint assay: phosphorylation of GFP-eIF2α measured by TR-FRET (Lanthascreen)
Type: biochemical
Procedure, shortened: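 Reaction started with 2 μM ATP and 80 nM GFP-labelled eIF2α substrate at room temperature, stopped with EDTA after 90 minutes. Phospho-eIF2α detected by terbium-labelled antibody TR-FRET; activity taken as 520 nm (fluorescein) to 495 nm (terbium) emission ratio.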

[1] = tested as described in Example 77, compound and/or hydrochloride, dihydrochloride or trifluoroacetic acid salt, read-out: IC 50 Activity
[2] = GCN2 biochemical IC50, 4 nM GCN2, 2 μM ATP, 80 nM GFP-eIF2α, 90 min RT, read-out: GCN2 activity

GCN2, sequence (Q9P2K8 whole entry): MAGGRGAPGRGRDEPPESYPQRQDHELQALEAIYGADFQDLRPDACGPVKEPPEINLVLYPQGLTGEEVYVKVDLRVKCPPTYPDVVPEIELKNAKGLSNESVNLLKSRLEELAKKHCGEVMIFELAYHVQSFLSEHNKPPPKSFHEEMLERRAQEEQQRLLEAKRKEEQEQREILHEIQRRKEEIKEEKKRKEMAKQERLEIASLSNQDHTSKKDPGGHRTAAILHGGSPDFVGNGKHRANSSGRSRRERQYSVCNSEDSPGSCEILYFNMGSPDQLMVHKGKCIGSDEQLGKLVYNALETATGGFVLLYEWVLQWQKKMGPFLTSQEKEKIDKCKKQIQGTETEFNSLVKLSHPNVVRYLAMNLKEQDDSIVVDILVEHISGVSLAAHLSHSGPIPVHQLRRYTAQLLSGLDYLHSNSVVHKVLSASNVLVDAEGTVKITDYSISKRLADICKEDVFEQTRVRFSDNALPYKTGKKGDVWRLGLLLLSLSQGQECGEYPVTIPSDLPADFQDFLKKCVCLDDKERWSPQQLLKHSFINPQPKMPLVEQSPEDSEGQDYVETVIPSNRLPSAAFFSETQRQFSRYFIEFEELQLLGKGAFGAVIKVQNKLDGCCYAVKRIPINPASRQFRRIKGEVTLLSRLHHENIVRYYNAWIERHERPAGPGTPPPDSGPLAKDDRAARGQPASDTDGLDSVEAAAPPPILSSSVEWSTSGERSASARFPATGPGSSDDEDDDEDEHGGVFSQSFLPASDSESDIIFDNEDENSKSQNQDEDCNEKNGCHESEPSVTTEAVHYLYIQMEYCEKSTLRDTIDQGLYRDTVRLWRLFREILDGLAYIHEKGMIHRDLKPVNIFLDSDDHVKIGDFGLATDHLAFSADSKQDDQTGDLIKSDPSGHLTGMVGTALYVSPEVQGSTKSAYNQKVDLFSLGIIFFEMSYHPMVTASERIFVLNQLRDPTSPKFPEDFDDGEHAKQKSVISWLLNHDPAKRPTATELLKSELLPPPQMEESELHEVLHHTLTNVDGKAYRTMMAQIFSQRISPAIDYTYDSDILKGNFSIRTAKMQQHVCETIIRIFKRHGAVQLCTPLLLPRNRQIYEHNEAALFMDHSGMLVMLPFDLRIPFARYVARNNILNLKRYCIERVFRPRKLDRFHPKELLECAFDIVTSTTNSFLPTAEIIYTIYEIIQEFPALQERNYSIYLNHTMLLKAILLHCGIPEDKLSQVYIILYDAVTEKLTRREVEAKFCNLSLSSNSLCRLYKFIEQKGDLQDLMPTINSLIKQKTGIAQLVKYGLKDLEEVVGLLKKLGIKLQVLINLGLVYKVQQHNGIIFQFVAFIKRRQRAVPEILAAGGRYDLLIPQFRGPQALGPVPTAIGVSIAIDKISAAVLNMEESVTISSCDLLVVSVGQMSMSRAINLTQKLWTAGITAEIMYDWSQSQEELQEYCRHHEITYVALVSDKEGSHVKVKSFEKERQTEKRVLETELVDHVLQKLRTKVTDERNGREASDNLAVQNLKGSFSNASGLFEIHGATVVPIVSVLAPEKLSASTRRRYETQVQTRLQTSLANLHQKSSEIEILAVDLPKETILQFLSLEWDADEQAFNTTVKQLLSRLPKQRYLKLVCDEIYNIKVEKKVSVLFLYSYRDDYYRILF

Row | IC50 [1] [nM] | IC50 [2] [nM] | Structure (SMILES)
1 | 25 to 200 | – | O=C([C@@H]1CC[C@@H](Nc2ncc3c(Br)nn(-c4ccc5ncccc5c4)c3n2)C1)N1CCS(=O)(=O)CC1 [((1R,3R)-3-((3-bromo-1-(quinolin-6-yl)-1H-pyrazolo[3,4-d]pyrimidin-6-yl)amino)cyclo-pentyl)(1,1-dioxidothiomorpholino)methanone]
2 | – | 25 to 200 | CNC(=O)[C@]1(CC(F)F)CC[C@@H](Nc2ncc3c(Br)nn(-c4ccc5nccnc5c4)c3n2)C1 [Example 51, (1R,3R)-3-((3-bromo-1-(quinoxalin-6-yl)-1H-pyrazolo[3,4-d]pyrimidin-6-yl)amino)-1-(2,2-difluoroethyl)-N-methylcyclopentane-1-carboxamide; 2,2,2-trifluoroacetic acid]
3 | 25 to 200 | – | CN1CCN(C(=O)[C@@H]2CC[C@@H](Nc3ncc4c(Br)nn(-c5cc(C#N)c6ncccc6c5)c4n3)C2)CC1=O [6-(3-bromo-6-(((1R,3R)-3-(4-methyl-3-oxo-piperazine-1-carbonyl)cyclopentyl)amino)-1H-pyrazolo[3,4-d]pyrimidin-1-yl)quinoline-8-carbonitrile]
4 | 500 to 1000 | – | COCCNC(=O)[C@@]1(C)CC[C@@H](Nc2ncc3c(Br)nn(-c4ccc5ncccc5c4)c3n2)C1 [(1S,3R)-3-((3-bromo-1-(quinolin-6-yl)-1H-pyrazolo[3,4-d]pyrimidin-6-yl)amino)-N-(2-methoxyethyl)-1-methylcyclopentane-1-carboxamide]
5 | 25 to 200 | – | CNC(=O)[C@]1(C)CC[C@@H](Nc2ncc3c(Br)nn(-c4ccc5nccc(=O)n5c4)c3n2)C1 [(1R,3R)-3-[[3-bromo-1-(4-oxopyrido [1,2-a]pyrimidin-7-yl)pyrazolo[3,4-d]pyrimidin-6-yl]amino]-N,1-dimethyl-cyclopentanecarboxamide]
6 | – | < 25 | COCCNC(=O)[C@@H]1CC[C@@H](Nc2ncc3c(Cl)nn(-c4ccc5ncccc5c4)c3n2)C1 [Example 14, (1R,3R)-3-((3-chloro-1-(quinolin-6-yl)-1H-pyrazolo[3,4-d]pyrimidin-6-yl)amino)-N-(2-methoxyethyl)cyclopentane-1-carboxamide]
7 | 25 to 200 | – | CNC(=O)[C@]1(C)CC[C@@H](Nc2ncc3c(Br)nn(-c4cccc(Oc5ccncc5)c4)c3n2)C1 [(1R,3R)-3-[[3-bromo-1-[3-(4-pyridyloxy)phenyl]pyrazolo[3,4-d]pyrimidin-6-yl]amino]-N,1-dimethyl-cyclopentane-carboxamide]
8 | – | 200 to 500 | CS(=O)(=O)N[C@@H]1CCC(Nc2ncc3c(Br)nn(-c4ccc5ncccc5c4)c3n2)C1 (mixture of isomers) [Example 15, N-(trans-3-((3-bromo-1-(quinolin-6-yl)-1H-pyrazolo[3,4-d]pyrimidin-6-yl)amino)cyclopentyl)methanesulfonamide]
9 | – | < 25 | COCCNC(=O)[C@@H]1CC[C@@H](Nc2ncc3c(Br)nn(-c4ccc5ncccc5c4)c3n2)C1 [Example 1, (1R,3R)-3-((3-bromo-1-(quinolin-6-yl)-1H-pyrazolo[3,4-d]pyrimidin-6-yl)amino)-N-(2-methoxyethyl)cyclopentane-1-carboxamide]
10 | 25 to 200 | – | CNC(=O)[C@]1(C)CC[C@@H](Nc2ncc3c(Br)nn(-c4ccc5ncc(OCCOC)cc5c4)c3n2)C1 [(1R,3R)-3-[[3-bromo-1-[3-(2-methoxy-ethoxy)-6-quinolyl]pyrazolo[3,4-d]pyrimidin-6-yl]amino]-N,1-dimethyl-cyclopentanecarboxamide]
11 | 25 to 200 | – | CNC(=O)[C@@H]1CC[C@@H](Nc2ncc3c(Br)nn(-c4cnc5ncccc5c4)c3n2)C1 [(1R,3R)-3-[[3-bromo-1-(1,8-naphthyridin-3-yl)pyrazolo[3,4-d]pyrimidin-6-yl]amino]-N-methyl-cyclopentanecarboxamide]

The next lines start with the compound.

Row | Structure (SMILES) | IC50 [1] [nM] | IC50 [2] [nM]
12 | CNC(=O)[C@]1(C)CC[C@@H](Nc2ncc3c(Br)nn(-c4ccc(-c5cncs5)cc4)c3n2)C1 [(1R,3R)-3-[[3-bromo-1-(4-thiazol-5-ylphenyl)pyrazolo[3,4-d]pyrimidin-6-yl]amino]-N,1-dimethyl-cyclopentane-carboxamide] | 25 to 200 | –
13 | CNC(=O)[C@]1(C)CC[C@@H](Nc2ncc3c(Br)nn(-c4ccc(-n5nccn5)cc4)c3n2)C1 [(1R,3R)-3-[[3-bromo-1-[4-(triazol-2-yl)phenyl]pyrazolo[3,4-d]pyrimidin-6-yl]amino]-N,1-dimethyl-cyclopentane-carboxamide] | 25 to 200 | –
14 | CNC(=O)[C@]1(C)CC[C@@H](Nc2ncc3c(Br)nn(-c4ccc5c(c4)CN(S(=O)(=O)CC(F)F)C5)c3n2)C1 [(1R,3R)-3-[[3-bromo-1-[2-(2,2-difluoroethylsulfonyl)isoindolin-5-yl]pyrazolo[3,4-d]pyrimidin-6-yl]amino]-N,1-dimethyl-cyclopentanecarboxamide] | 25 to 200 | –
15 | CNC(=O)[C@]1(C)CC[C@@H](Nc2ncc3c(Br)nn(-c4ccc5cncnc5c4)c3n2)C1 | 25 to 200 | –
16 | CNC(=O)[C@]1(C)CC[C@@H](Nc2ncc3c(Br)nn(-c4ccc(-c5nnc(C)s5)c(CCN5CCOCC5)c4)c3n2)C1 [(1R,3R)-3-[[3-bromo-1-[4-(5-methyl-1,3,4-thiadiazol-2-yl)-3-(2-morpholino-ethyl)phenyl]pyrazolo[3,4-d]pyrimidin-6-yl]amino]-N,1-dimethyl-cyclo-pentanecarboxamide] | 25 to 200 | –
17 | C[C@H](N)c1cc(Cl)cc(-n2nc(Br)c3cnc(N[C@@H]4CC[C@@](C)(C(=O)N5CCNCC5)C4)nc32)c1 [[(1R,3R)-3-[[1-[3-[(1S)-1-aminoethyl]-5-chloro-phenyl]-3-bromo-pyrazolo [3,4-d]pyrimidin-6-yl]amino]-1-methyl-cyclopentyl]-piperazin-1-yl-methanone] | 25 to 200 | –
18 | COCCN(C)C(=O)[C@]1(C)CC[C@@H](Nc2ncc3c(Br)nn(-c4cc(F)c5ncccc5c4)c3n2)C1 [(1R,3R)-3-[[3-bromo-1-(8-fluoro-6-quinolyl)pyrazolo[3,4-d]pyrimidin-6-yl]amino]-N-(2-methoxyethyl)-N,1-dimethyl-cyclopentane-carboxamide] | < 25 | –
19 | COCCNC(=O)[C@@H]1CCC(Nc2ncc3c(Br)nn(-c4ccc(-c5nnc(C)s5)cc4)c3n2)C1 (stereo partly drawn) [(1R)-3-[[3-bromo-1-[4-(5-methyl-1,3,4-thiadiazol-2-yl)phenyl]pyrazolo[3,4-d]pyrimidin-6-yl]amino]-N-(2-methoxy-ethyl)cyclopentanecarboxamide] | 25 to 200 | –
20 | Cc1nnc(-c2ccc(-n3nc(Br)c4cnc(N[C@@H]5CC[C@@](C)(O)C5)nc43)cc2C#N)s1 [Example 67, 5-(3-bromo-6-(((1R,3R)-3-hydroxy-3-methylcyclopentyl)amino)-1H-pyrazolo[3,4-d]pyrimidin-1-yl)-2-(5-methyl-1,3,4-thiadiazol-2-yl)benzonitrile] | – | < 25
21 | CNC(=O)[C@]1(C)CC[C@@H](Nc2ncc3c(Br)nn(-c4cc(CO)cc(S(C)(=O)=O)c4)c3n2)C1 [(1R,3R)-3-[[3-bromo-1-[3-(hydroxymethyl)-5-methylsulfonyl-phenyl]pyrazolo[3,4-d]pyrimidin-6-yl]amino]-N,1-dimethyl-cyclo-pentanecarboxamide] | 25 to 200 | –
22 | CCS(=O)(=O)N1Cc2ccc(-n3nc(Br)c4cnc(N[C@@H]5CC[C@@](C)(C(=O)NC)C5)nc43)cc2C1 [(1R,3R)-3-[[3-bromo-1-(2-ethylsulfonyl-isoindolin-5-yl)pyrazolo[3,4-d]pyrimidin-6-yl]amino]-N,1-dimethyl-cyclopentane-carboxamide] | 25 to 200 | –
23 | Cc1nnc(-c2ccc(-n3nc(Br)c4cnc(N[C@@H]5CC[C@]6(CCNC6=O)C5)nc43)cc2)s1 | 25 to 200 | –
24 | CNC(=O)[C@]1(C)CC[C@@H](Nc2ncc3c(Br)nn(-c4cnc5c(c4)OCC(=O)N5C)c3n2)C1 [(1R,3R)-3-[[3-bromo-1-(4-methyl-3-oxo-pyrido[3,2-b][1,4]oxazin-7-yl)pyrazolo [3,4-d]pyrimidin-6-yl]amino]-N,1-dimethyl-cyclopentanecarboxamide] | 25 to 200 | –
25 | CNC(=O)[C@]1(C)CC[C@@H](Nc2ncc3c(Br)nn(-c4ccc(-c5ncco5)c([C@H](C)CN)c4)c3n2)C1 [(1R,3R)-3-[[1-[3-[(1S)-2-amino-1-methyl-ethyl]-4-oxazol-2-yl-phenyl]-3-bromo-pyrazolo[3,4-d]pyrimidin-6-yl]amino]-N,1-dimethyl-cyclopentanecarboxamide] | 25 to 200 | –
26 | CNC(=O)[C@]1(C)CC[C@@H](Nc2ncc3c(Br)nn(-c4ccc(-c5ncco5)c(CO)c4)c3n2)C1 [(1R,3R)-3-[[3-bromo-1-[3-(hydroxymethyl)-4-oxazol-2-yl-phenyl]pyrazolo[3,4-d]pyrimidin-6-yl]amino]-N,1-dimethyl-cyclopentanecarboxamide] | 25 to 200 | –
27 | Cc1nnc(-c2ccc(-n3nc(Br)c4cnc(N[C@@H]5CC[C@@](C)(C(=O)NC6CC6)C5)nc43)cc2CCC#N)s1 [(1R,3R)-3-[[3-bromo-1-[3-(2-cyanoethyl)-4-(5-methyl-1,3,4-thiadiazol-2-yl)phenyl]pyrazolo[3,4-d]pyrimidin-6-yl]amino]-N-cyclopropyl-1-methyl-cyclopentane-carboxamide] | 25 to 200 | –
28 | CNCc1cc(OC(F)(F)F)cc(-n2nc(Br)c3cnc(N[C@@H]4CCC(C)(C(=O)NC)C4)nc32)c1 (stereo partly drawn) [(3R)-3-[[3-bromo-1-[3-(methylaminomethyl)-5-(trifluoromethoxy)phenyl]pyrazolo[3,4-d]pyrimidin-6-yl]amino]-N,1-dimethyl-cyclopentanecarboxamide] | 25 to 200 | –
29 | CNC(=O)[C@]1(C)CC[C@@H](Nc2ncc3c(Br)nn(-c4ccc(-c5ncco5)c(NC(=O)CCN)c4)c3n2)C1 [(1R,3R)-3-[[1-[3-(3-aminopropanoyl-amino)-4-oxazol-2-yl-phenyl]-3-bromo-pyrazolo[3,4-d]pyrimidin-6-yl]amino]-N,1-dimethyl-cyclopentane-carboxamide] | < 25 | –
30 | CNC(=O)[C@]1(C)CC[C@@H](Nc2ncc3c(Br)nn(-c4ccc(-c5ncco5)c(C5CCCNC5)c4)c3n2)C1 (stereo partly drawn) [(1R,3R)-3-[[3-bromo-1-[4-oxazol-2-yl-3-(3-piperidyl)phenyl]pyrazolo[3,4-d]pyrimidin-6-yl]amino]-N,1-dimethyl-cyclopentanecarboxamide] | 25 to 200 | –
